From PubChem BioAssay AID2060489 (Molecular Pharmacology Branch, DTP, NCI, 2025)

System: 922993-354-T-J3-PDC complex spheroids, viability
Experiment: Anticancer human tumor 922993-354-T-J3-PDC patient-derived endometrial carcinoma cell line growth inhibition [GQUAD]
Details: for IC50: curve of first compound; for viability, T/C: stronger effect = lower value
In short: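 Multi-cell-type spheroids of tumor cells with HUVEC and mesenchymal stem cells, treated with drug combinations. Concentrations descend in half-log steps from near clinical Cmax, or from 10 microM where Cmax is unknown; viability read-out.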

[1] = second compound 0.0316 µM, first compound 0.0316 µM
[2] = second compound 0.0316 µM, first compound 0.1 µM
[3] = second compound 0.0316 µM, first compound 0.316 µM
[4] = second compound 0.0316 µM, first compound 1 µM
[5] = second compound 0.0316 µM, first compound 3.16 µM
[6] = second compound 0.0316 µM, first compound 10 µM
[7] = second compound 0.1 µM, first compound 0.0316 µM
[8] = second compound 0.1 µM, first compound 0.1 µM
[9] = second compound 0.1 µM, first compound 0.316 µM
[10] = second compound 0.1 µM, first compound 1 µM
[11] = second compound 0.1 µM, first compound 3.16 µM
[12] = second compound 0.1 µM, first compound 10 µM
[13] = second compound 0.316 µM, first compound 0.0316 µM
[14] = second compound 0.316 µM, first compound 0.1 µM
[15] = second compound 0.316 µM, first compound 0.316 µM
[16] = second compound 0.316 µM, first compound 1 µM
[17] = second compound 0.316 µM, first compound 3.16 µM
[18] = second compound 0.316 µM, first compound 10 µM
[19] = second compound 1 µM, first compound 0.0316 µM
[20] = second compound 1 µM, first compound 0.1 µM
[21] = second compound 1 µM, first compound 0.316 µM
[22] = second compound 1 µM, first compound 1 µM
[23] = second compound 1 µM, first compound 3.16 µM
[24] = second compound 1 µM, first compound 10 µM
[25] = second compound 3.16 µM, first compound 0.0316 µM
[26] = second compound 3.16 µM, first compound 0.1 µM
[27] = second compound 3.16 µM, first compound 0.316 µM
[28] = second compound 3.16 µM, first compound 1 µM
[29] = second compound 3.16 µM, first compound 3.16 µM
[30] = second compound 3.16 µM, first compound 10 µM
[31] = second compound 10 µM, first compound 0.0316 µM
[32] = second compound 10 µM, first compound 0.1 µM
[33] = second compound 10 µM, first compound 0.316 µM
[34] = second compound 10 µM, first compound 1 µM
[35] = second compound 10 µM, first compound 3.16 µM
[36] = second compound 10 µM, first compound 10 µM
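Further: spheroids exposed to compounds for seven days.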
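Wherever viability, T/C is given: 100% = DMSO vehicle control viability.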

In the case of `O=c1[nH]cc(F)c(=O)[nH]1` + Cc1[nH]c2ccc(F)cc2c1-c1nc2c3cccnc3c3ncccc3c2[nH]1, the IC50 (second compound 0.0316 µM) is reported as over 10 µM, the IC50 (second compound 0.1 µM) is reported as over 10 µM and the IC50 (second compound 0.316 µM) is reported as over 10 µM. For the same compound, the IC50 (second compound 1 µM) was over 10 µM, the IC50 (second compound 3.16 µM) was over 10 µM and the IC50 (second compound 10 µM) was over 10 µM. It also gave a viability, T/C [1] of 85%, a viability, T/C [2] of 77.8% and a viability, T/C [3] of 113%. It also gave a viability, T/C [4] of 105%, a viability, T/C [5] of 80.4% and a viability, T/C [6] of 55.3%. The viability, T/C [7] was 117%, the viability, T/C [8] was 87.6% and the viability, T/C [9] was 102%. It also gave a viability, T/C [10] of 99.6%, a viability, T/C [11] of 69.2% and a viability, T/C [12] of 66.4%. The viability, T/C [13] was 119%, the viability, T/C [14] was 83.7% and the viability, T/C [15] was 103%. For the same compound, the viability, T/C [16] was 94.3%, the viability, T/C [17] was 95.5% and the viability, T/C [18] was 64.8%. For the same compound, the viability, T/C [19] was 87.2%, the viability, T/C [20] was 104% and the viability, T/C [21] was 95.8%. It also gave a viability, T/C [22] of 71.6%, a viability, T/C [23] of 82.1% and a viability, T/C [24] of 53.9%. For the same compound, the viability, T/C [25] was 90%, the viability, T/C [26] was 84.6% and the viability, T/C [27] was 98.8%. For the same compound, the viability, T/C [28] was 96.8%, the viability, T/C [29] was 76.2% and the viability, T/C [30] was 59%. For the same compound, the viability, T/C [31] was 104%, the viability, T/C [32] was 109% and the viability, T/C [33] was 93.6%. For the same compound, the viability, T/C [34] was 92.6%, the viability, T/C [35] was 103% and the viability, T/C [36] was 61.6%.
`CCCS(=O)(=O)Nc1ccc(F)c(C(=O)c2c[nH]c3ncc(-c4ccc(Cl)cc4)cc23)c1F` + Cc1[nH]c2ccc(F)cc2c1-c1nc2c3cccnc3c3ncccc3c2[nH]1 gave an IC50 (second compound 0.0316 µM) of over 10 µM, an IC50 (second compound 0.1 µM) of over 10 µM and an IC50 (second compound 0.316 µM) of over 10 µM. For the same compound, the IC50 (second compound 1 µM) was over 10 µM, the IC50 (second compound 3.16 µM) was over 10 µM and the IC50 (second compound 10 µM) was over 10 µM. It also gave a viability, T/C [1] of 113%, a viability, T/C [2] of 101% and a viability, T/C [3] of 78.5%. It also gave a viability, T/C [4] of 69.4%, a viability, T/C [5] of 77.3% and a viability, T/C [6] of 68.4%. It also gave a viability, T/C [7] of 119%, a viability, T/C [8] of 99.2% and a viability, T/C [9] of 75.7%. For the same compound, the viability, T/C [10] was 81.2%, the viability, T/C [11] was 76.9% and the viability, T/C [12] was 57.1%. For the same compound, the viability, T/C [13] was 101%, the viability, T/C [14] was 82.4% and the viability, T/C [15] was 81.5%. It also gave a viability, T/C [16] of 77.2%, a viability, T/C [17] of 78.2% and a viability, T/C [18] of 56.2%. It also gave a viability, T/C [19] of 93%, a viability, T/C [20] of 83.5% and a viability, T/C [21] of 61.9%. It also gave a viability, T/C [22] of 92.9%, a viability, T/C [23] of 82% and a viability, T/C [24] of 56.7%. For the same compound, the viability, T/C [25] was 91.2%, the viability, T/C [26] was 98.6% and the viability, T/C [27] was 82.5%. It also gave a viability, T/C [28] of 87.5%, a viability, T/C [29] of 76.4% and a viability, T/C [30] of 60.9%. It also gave a viability, T/C [31] of 96.9%, a viability, T/C [32] of 99.7% and a viability, T/C [33] of 85.4%. It also gave a viability, T/C [34] of 81.4%, a viability, T/C [35] of 76.9% and a viability, T/C [36] of 64%.
In the case of `C=CC(=O)N1CCN(c2nc(=O)n(-c3c(C)ccnc3C(C)C)c3nc(-c4c(O)cccc4F)c(F)cc23)C(C)C1` (stereo not drawn) + CN(C)c1ccc(Nc2c3ccc(NC(=O)CCN4CCCC4)cc3nc3cc(NC(=O)CCN4CCCC4)ccc23)cc1, the IC50 (second compound 0.0316 µM) is reported as over 10 µM, the IC50 (second compound 0.1 µM) is reported as over 10 µM and the IC50 (second compound 0.316 µM) is reported as over 10 µM. The IC50 (second compound 1 µM) was over 10 µM, the IC50 (second compound 3.16 µM) was over 10 µM and the IC50 (second compound 10 µM) was over 10 µM. For the same compound, the viability, T/C [1] was 96.9%, the viability, T/C [2] was 84.8% and the viability, T/C [3] was 102%. The viability, T/C [4] was 104%, the viability, T/C [5] was 97% and the viability, T/C [6] was 119%. It also gave a viability, T/C [7] of 109%, a viability, T/C [8] of 109% and a viability, T/C [9] of 112%. The viability, T/C [10] was 94.5%, the viability, T/C [11] was 128% and the viability, T/C [12] was 109%. For the same compound, the viability, T/C [13] was 112%, the viability, T/C [14] was 120% and the viability, T/C [15] was 96.7%. For the same compound, the viability, T/C [16] was 128%, the viability, T/C [17] was 103% and the viability, T/C [18] was 104%. It also gave a viability, T/C [19] of 111%, a viability, T/C [20] of 118% and a viability, T/C [21] of 99.6%. For the same compound, the viability, T/C [22] was 125%, the viability, T/C [23] was 117% and the viability, T/C [24] was 120%. For the same compound, the viability, T/C [25] was 107%, the viability, T/C [26] was 128% and the viability, T/C [27] was 107%. For the same compound, the viability, T/C [28] was 139%, the viability, T/C [29] was 137% and the viability, T/C [30] was 117%. The viability, T/C [31] was 115%, the viability, T/C [32] was 140% and the viability, T/C [33] was 142%. It also gave a viability, T/C [34] of 137%, a viability, T/C [35] of 153% and a viability, T/C [36] of 142%.
`O=C(c1cc(Cc2n[nH]c(=O)c3ccccc23)ccc1F)N1CCN(C(=O)C2CC2)CC1` + Cc1cnc(CNC(=O)c2c(=O)c3ccc(N4CCCN(C)CC4)nc3n3c2sc2ccccc23)cn1 showed an IC50 (second compound 0.0316 µM) of over 10 µM, an IC50 (second compound 0.1 µM) of over 10 µM and an IC50 (second compound 0.316 µM) of under 0.0316 µM. For the same compound, the IC50 (second compound 1 µM) was under 0.0316 µM, the IC50 (second compound 3.16 µM) was under 0.0316 µM and the IC50 (second compound 10 µM) was 3.77 µM. It also gave a viability, T/C [1] of 79.7%, a viability, T/C [2] of 78% and a viability, T/C [3] of 90.8%. For the same compound, the viability, T/C [4] was 92.5%, the viability, T/C [5] was 61.2% and the viability, T/C [6] was 75%. For the same compound, the viability, T/C [7] was 74.1%, the viability, T/C [8] was 68.3% and the viability, T/C [9] was 64.1%. For the same compound, the viability, T/C [10] was 49.1%, the viability, T/C [11] was 54.4% and the viability, T/C [12] was 76%. The viability, T/C [13] was 57.4%, the viability, T/C [14] was 46.1% and the viability, T/C [15] was 39.4%. For the same compound, the viability, T/C [16] was 42%, the viability, T/C [17] was 50.4% and the viability, T/C [18] was 55.3%. The viability, T/C [19] was 50.2%, the viability, T/C [20] was 51.7% and the viability, T/C [21] was 37.2%. For the same compound, the viability, T/C [22] was 43.5%, the viability, T/C [23] was 48.5% and the viability, T/C [24] was 41.1%. For the same compound, the viability, T/C [25] was 43.7%, the viability, T/C [26] was 53.4% and the viability, T/C [27] was 53.4%. It also gave a viability, T/C [28] of 57.7%, a viability, T/C [29] of 51.3% and a viability, T/C [30] of 49.8%. It also gave a viability, T/C [31] of 42.8%, a viability, T/C [32] of 53.4% and a viability, T/C [33] of 60.1%. For the same compound, the viability, T/C [34] was 52.8%, the viability, T/C [35] was 52% and the viability, T/C [36] was 39.2%.
